# Data reported in patent US20170348371A1, “THE ANTI CANCEROUS, ANTIPARASITE (TOXOPLASMA GONDII (PROTOZOON) AND ANTIMICROBIAL EFFECT AND DOSAGE OF NIGELLA (NIGELLA SATIVA) EXTRACT” (priority 2014, published 2017).
# Legend:
# [1] = tested on: Toxoplasma gondii; assay: ELISA test of efficiency against Toxoplasma gondii in infected Hep2 cells; assay type: cell-based; conditions: for ELISA OD value according to positive control (reproduction) / ELISA value in comparison to PK: 48 hours; for ELISA value: 72 hour plates
# Description: An ELISA (Enzyme-Linked Immunosorbent Assay) test (FIG. 4) has been planned and conducted in order to determine efficiency against Toxoplasma gondii.
# The ELISA test has been carried out on flat bottom well plates having 96 wells. First of all the base of the plates have been covered with a suitable amount of Hep2 cells. […] Following this all wells have been processed again with different doses (determined with MTT) of Pyrimtheamine, Sulphadiazine and Nigella Sativa extract, prepared with DMSO.
# The result was read by the ELISA reader device in 30 minutes
# [2] = tested on: Hep2 cells; assay: MTT cytotoxicity test on Hep2 cell line; assay type: cell-based, Human
# Description: The oils of the plant as an extract are used which have been obtained by cold pressing and it has been ensured that the extract is fresh and pure. The extracts that have been obtained through the whole study have been initially diluted with solvents, filtered and sterilized. […] The maximum dose and dilution sub doses that have been determined accordingly have been repeated controlled groups. Different amounts of Hep2 cells have been tested in flat bottomed 96 well plates for cell culture during the first stage of the study and it has been determined that […] cells were optimal for the monolayer layer of 2×10^4 cell per well. A pure oil of Nigella plant extract, which has been tested inside various solvents in terms of penetration into cells and homogenous distribution. MTT tests have been carried out relating to Hep2 cells in solvents too. DMSO was selected from solvents such as DMSO and Methanol and was used and cytopathic doses have not been exceeded during the whole study (FIG. 2). Essential oil has been obtained from Nigella and emulsions have been obtained from fixed oil plants (Ginger etc.) and compounds.
smiles,measurement,setting,value
CCc1nc(N)nc(N)c1-c1ccc(Cl)cc1 [Pyrimethamine],ELISA OD value according to positive control (reproduction),[1]; 0.5 μg/ml,75%
same,ELISA OD value according to positive control (reproduction),[1]; 1 μg/ml (printed '2.1 and 0.5 μg/ml doses'),54%
same,ELISA OD value according to positive control (reproduction),[1]; 2 μg/ml (printed '2.1 and 0.5 μg/ml doses'),56%
same,ELISA OD value according to positive control (reproduction),[1]; 4 μg/ml,45%
same,ELISA value,[1]; 4 μg/ml (1st dose),48%
same,ELISA value,[1]; 2nd dose of series starting from 4 μg/ml,29%
same,ELISA value,[1]; 3rd dose of series starting from 4 μg/ml,36%
same,ELISA value,[1]; 4th dose of series starting from 4 μg/ml,41%
same,ELISA value,[1]; 5th dose of series starting from 4 μg/ml,32%
same,ELISA value,[1]; 6th dose of series starting from 4 μg/ml,27%
same,ELISA value,[1]; 7th dose of series starting from 4 μg/ml,27%
same,ELISA value,[1]; 8th dose of series starting from 4 μg/ml,73%
same,OD value in MTT test,[2]; 1 μg/ml,"1,228"
same,OD value in MTT test,[2]; 2 μg/ml,"1,198"
same,OD value in MTT test,[2]; 4 μg/ml,0.623
same,OD value in MTT test,[2]; 8 μg/ml,0.310
same,OD value in MTT test,[2]; 16 μg/ml,0.209
same,OD value in MTT test,[2]; 32 μg/ml,0.097
Nc1ccc(S(=O)(=O)Nc2ncccn2)cc1 [Sulphadiazine],ELISA value in comparison to PK,[1]; 25 μg/ml,80%
same,ELISA value in comparison to PK,[1]; 50 μg/ml,97%
same,ELISA value in comparison to PK,[1]; 4th dose of series from 100 μg/ml (concentration not given),79%
same,ELISA value in comparison to PK,[1]; 5th dose of series from 100 μg/ml (concentration not given),61%
same,ELISA value in comparison to PK,[1]; 6th dose of series from 100 μg/ml (concentration not given),95%
same,ELISA value in comparison to PK,[1]; 7th dose of series from 100 μg/ml (concentration not given),84%
same,ELISA value in comparison to PK,[1]; 8th dose of series from 100 μg/ml (concentration not given),97%
same,ELISA value in comparison to PK,[1]; concentration of 100 (unit not given),51%
same,ELISA value,[1]; 100 μg/ml (1st dose),52%
same,ELISA value,[1]; 2nd dose of series starting from 100 μg/ml,57%
same,ELISA value,[1]; 3rd dose of series starting from 100 μg/ml,52%
same,ELISA value,[1]; 4th dose of series starting from 100 μg/ml,77%
same,ELISA value,[1]; 5th dose of series starting from 100 μg/ml,75%
same,ELISA value,[1]; 6th dose of series starting from 100 μg/ml,55%
same,ELISA value,[1]; 7th dose of series starting from 100 μg/ml,52%
same,ELISA value,[1]; 8th dose of series starting from 100 μg/ml,84%
same,OD value in MTT test,[2]; 50 μg/ml,"1,002"
same,OD value in MTT test,[2]; 100 μg/ml,0.827
same,OD value in MTT test,[2]; 200 μg/ml,0.254
